Measured values: patent publication US8604016B2, “Heterocyclic inhibitors of glutaminase” (Calithera Biosciences Inc., priority 2011, dated 2013)

biological target: recombinant form of Glutaminase 1 (GAC) (Homo sapiens, UniProt O94925); assay: Recombinant Enzyme Assay (GAC coupled to GDH, NADH absorbance, no preincubation); type: biochemical; settings: no preincubation; read-out: GAC Delta N2 IC50 no
Protocol: Enzymatic reaction was started with the addition of 50 μL of enzyme solution (50 mM Tris-HCl pH 8.0, 0.2 mM EDTA, 150 mM K2HPO4, 0.1 mg/ml BSA, 1 mM DTT, 10 ppm antifoam, 4 units/ml GDH, 4 mM adenosine diphosphate, and 4 nM GAC) and read in a Molecular Devices M5 plate reader at 20° C. The plate reader was configured to read absorbance (λ=340 nm) in kinetic mode for 15 minutes. Data was recorded as milli-absorbance units per minute and slopes were compared to a control compound and a DMSO-only control on the same plate. Compounds with slopes less than the DMSO control were considered inhibitors and plate variability was assessed using the control compound.

Row | IC50 [nM] | Structure (SMILES)
1 | 480 | O=C(Cc1cccnc1)Nc1nnc(CCSCCc2nnc(NC(=O)Cc3cccnc3)s2)s1 [Compound 638]

same assay, conditions: no preincubation; read-out: GAC Delta N2 IC50 no preinc

Row | IC50 [nM] | Structure (SMILES)
2 | 2500 | O=C(Nc1nnc(CCSCCc2nnc(NC(=O)C3Cc4ccccc4O3)s2)s1)C1Cc2ccccc2O1 (stereo not shown) [Compound 50]
3 | 1200 | O=C(Nc1nnc(CCCCc2nnc(NC(=O)C3Cc4ccccc4O3)s2)s1)C1Cc2ccccc2O1 (stereo not shown) [Compound 51]
4 | 3900 | O=C(Nc1nnc(CCCCc2nnc(NC(=O)c3ccnn3-c3ccccc3)s2)s1)c1ccnn1-c1ccccc1 [Compound 229]
5 | > 50000 | CC(=O)O[C@H](C(=O)Nc1nnc(CCSCCc2nnc(NC(=O)[C@@H](OC(C)=O)c3ccccc3)s2)s1)c1ccccc1 [Compound 71]
6 | 2800 | COCOCCOC(C(=O)Nc1nnc(CCCCc2nnc(NC(=O)C(OCCOCOC)c3ccccc3)s2)s1)c1ccccc1 (stereo not shown) [Compound 251]
7 | 160 | COc1ccc(Cl)c(CC(=O)Nc2nnc(CCCCc3nnc(NC(=O)Cc4ccccc4)s3)s2)c1F [Compound 343]
8 | > 20000 | CC1(C)OCC(C(=O)Nc2nnc(CCCCc3nnc(NC(=O)C4(c5ccccc5)COC(C)(C)O4)s3)s2)(c2ccccc2)O1 (stereo not shown) [Compound 277]
9 | > 20000 | O=C(Cc1coc2ccccc12)Nc1nnc(CCCCc2nnc(NC(=O)Cc3coc4ccccc34)s2)s1 [Compound 222]
10 | 8300 | N[C@@H](C(=O)Nc1nnc(CCSCCc2nnc(NC(=O)[C@H](N)c3ccccc3)s2)s1)c1ccccc1 [Compound 47]
11 | 740 | C=C(C(=O)Nc1nnc(CCCCc2nnc(NC(=O)C(COC(=O)CCN3CCOCC3)c3ccccc3)s2)s1)c1ccccc1 (stereo not shown) [Compound 281]
12 | 10000 | O=C(Nc1nnc(CCSCCc2nnc(NC(=O)[C@H](O)c3ccccc3)s2)s1)[C@H](O)c1ccccc1 [Compound 81]
13 | 280 | CC(C)COC(=O)Nc1nnc(CCCCc2nnc(NC(=O)Cc3ccccc3)s2)s1 [Compound 370]
14 | 800 | O=C(Cc1ccccc1)Nc1nnc(CCCCc2nnc(NC(=O)[C@H]3CCCC[C@@H]3C(=O)c3ccccc3)s2)s1 [Compound 290]
15 | > 20000 | CN(C)C(Cc1ccccc1)C(=O)Nc1nnc(CCCCc2nnc(NC(=O)C(Cc3ccccc3)N(C)C)s2)s1 (stereo not shown) [Compound 89]
16 | 160 | O=C(Cc1ccccc1)Nc1nnc(CCCCc2nnc(NC(=O)Cc3c(Cl)ccc(O)c3F)s2)s1 [Compound 345]
17 | 570 | O=C(Nc1nnc(CCCCc2nnc(NC(=O)C(O)c3ccccc3Br)s2)s1)C(O)c1ccccc1Br (stereo not shown) [Compound 287]
18 | 570 | O=C(Nc1nnc(CCCc2nnc(NC(=O)C(CO)c3ccccc3)s2)s1)C(CO)c1ccccc1 (stereo not shown) [Compound 176]

The next lines start with the compound.

Row | Structure (SMILES) | IC50 [nM]
19 | CC(C)[C@H](NC(=O)OC(C)(C)C)C(=O)Nc1nnc(CCCCc2nnc(NC(=O)[C@@H](NC(=O)OC(C)(C)C)C(C)C)s2)s1 [Compound 42] | > 50000
20 | O=C(CCN1CCOCC1)OC(C(=O)Nc1nnc(CCCCc2nnc(NC(=O)C(OC(=O)CCN3CCOCC3)c3cccc(Cl)c3)s2)s1)c1cccc(Cl)c1 (stereo not shown) [Compound 332] | 3300
21 | O=C(Cc1ccccc1)Nc1nnc(CCSCc2nnc(NC(=O)C(O)c3cccc(Cl)c3)s2)s1 (stereo not shown) [Compound 376] | 350
22 | O=C(Cc1ccccc1Br)Nc1nnc(CCSCCc2nnc(NC(=O)Cc3ccccc3Br)s2)s1 [Compound 283] | 660
23 | O=C(Cc1ccccc1)Nc1nnc(CCSCCc2nnc(NC(=O)[C@@H]3CCCN3C(=O)C(F)(F)F)s2)s1 [Compound 35] | 18000
24 | O=C(CC1CC1)Nc1nnc(CCSCCc2nnc(NC(=O)CC3CC3)s2)s1 [Compound 83] | 3900
25 | O=C(Cc1cccs1)Nc1nnc(CCSCCc2nnc(NC(=O)Cc3cccs3)s2)s1 [Compound 116] | 240
26 | O=C(Cc1cccc(Cn2cccn2)c1)Nc1nnc(CCCCc2nnc(NC(=O)Cc3cccc(Cn4cccn4)c3)s2)s1 [Compound 362] | 350
27 | CC(=O)OCC(=O)Nc1nnc(CCSCCc2nnc(NC(=O)CO)s2)s1 [Compound 254] | > 20000
28 | Cc1ccccc1C(C)C(=O)Nc1nnc(CCSCCc2nnc(NC(=O)C(C)c3ccccc3C)s2)s1 (stereo not shown) [Compound 262] | 360
29 | O=C(Nc1nnc(CCSCCc2nnc(NC(=O)C3CCc4ccccc4C3)s2)s1)C1CCc2ccccc2C1 (stereo not shown) [Compound 37] | > 50000
30 | Nc1nnc(CCCCc2nnc(NC(=O)C(CO)c3ccccc3)s2)s1 (stereo not shown) [Compound 227] | 9900
31 | COc1cccc(C(CO)C(=O)Nc2nnc(CCSCc3nnc(NC(=O)C(CO)c4cccc(OC)c4)s3)s2)c1 (stereo not shown) [Compound 258] | 190
32 | O=C(Cc1ccccc1)Nc1ccc(CCCCc2ccc(NC(=O)Cc3ccccc3)nn2)nn1 [Compound 1038] | 80
33 | O=C(Cc1ccsc1)Nc1nnc(CCSCCc2nnc(NC(=O)Cc3ccsc3)s2)s1 [Compound 84] | 230
34 | O=C(Nc1nnc(CCCCc2nnc(NC(=O)C3CC4CCC3C4)s2)s1)C1CC2CCC1C2 (stereo not shown) [Compound 55] | > 50000
35 | Cc1nccn1Cc1cccc(CC(=O)Nc2nnc(CCCCc3nnc(NC(=O)Cc4cccc(Cn5ccnc5C)c4)s3)s2)c1 [Compound 296] | 100

Row | Structure (SMILES) | IC50 [nM]
36 | CC(C)(C)OC(=O)N1CCCC(CC(=O)Nc2nnc(CCSCCc3nnc(NC(=O)CC4CCCN(C(=O)OC(C)(C)C)C4)s3)s2)C1 (stereo not shown) [Compound 112] | 510
37 | O=C(Cn1ccc2ccccc21)Nc1nnc(CCSCCc2nnc(NC(=O)Cn3ccc4ccccc43)s2)s1 [Compound 213] | 2500
38 | Nc1ccc(CC(=O)Nc2nnc(CCCCc3nnc(NC(=O)Cc4ccc(N)cc4)s3)s2)cc1 [Compound 196] | 190
39 | CCC(C)C(=O)Nc1nnc(CCSCCc2nnc(NC(=O)C(C)CC)s2)s1 (stereo not shown) [Compound 105] | 9900
40 | CN(C(=O)Cc1ccccc1)c1nnc(CCSCCc2nnc(N(C)C(=O)Cc3ccccc3)s2)s1 [Compound 6] | > 50000
41 | NS(=O)(=O)c1ccc(CC(=O)Nc2nnc(CCSCCc3nnc(NC(=O)Cc4ccc(S(N)(=O)=O)cc4)s3)s2)cc1 [Compound 217] | 240
42 | CC1(C)OC(=O)[C@@H](CC(=O)Nc2nnc(CCSCCc3nnc(NC(=O)C[C@H]4OC(C)(C)OC4=O)s3)s2)O1 [Compound 104] | > 20000
43 | CC(C)(C)C(=O)OCN(C(=O)Cc1ccccc1)c1nnc(CCSCCc2nnc(NC(=O)Cc3ccccc3)s2)s1 [Compound 15] | > 50000
44 | O=C(Nc1nnc(CCCCc2nnc(NC(=O)C3(c4cccs4)CCOCC3)s2)s1)C1(c2cccs2)CCOCC1 [Compound 167] | 11000
45 | NCC(C(=O)Nc1nnc(CCCCc2nnc(NC(=O)C(CN)c3ccccc3)s2)s1)c1ccccc1 (stereo not shown) [Compound 231] | 7400
46 | O=C(Cc1ccccc1)Nc1nnc(CCSCc2nnc(NC(=O)Cc3ccccn3)s2)s1 [Compound 373] | 170
47 | COCCC(=O)Nc1nnc(CCCCc2nnc(NC(=O)CCOC)s2)s1 [Compound 100] | 8100
48 | O=C(CC1CCNCC1)Nc1nnc(CCSCCc2nnc(NC(=O)CC3CCNCC3)s2)s1 [Compound 129] | > 20000
49 | CCOC(=O)Nc1nnc(CCCCc2nnc(NC(=O)Cc3ccccc3)s2)s1 [Compound 369] | 810
50 | CC(C)(C)OC(=O)N1CCC(CC(=O)Nc2nnc(CCSCCc3nnc(NC(=O)CC4CCN(C(=O)OC(C)(C)C)CC4)s3)s2)CC1 [Compound 111] | 950
51 | Cc1cc(C)n(CC(=O)Nc2nnc(CCSCCc3nnc(NC(=O)Cn4nc(C)cc4C)s3)s2)n1 [Compound 97] | 560
52 | O=C(OCC(C(=O)Nc1nnc(CCCCc2nnc(NC(=O)C(COC(=O)C3CCNCC3)c3ccccc3)s2)s1)c1ccccc1)C1CCNCC1 (stereo not shown) [Compound 302] | 7000
